Experimental findings from patent US4132786A, “N-Substituted 2-methoxybenzenesulphonamides and medicaments containing them” (priority 1975, dated 1979) are described below.

Usually LD50 stands for the dose expected to kill half of the subjects tested.

Data set [1] can be described thus: Determination of acute toxicity (LD50), intravenous, male mice. The settings on record: mouse, in vivo, 5 mice per batch, 6 days. As for the experimental part:
The acute toxicity of the compounds according to the invention was determined on male mice whose weight varied between 24 and 26 g. The compounds are administered intravenously in solution form and at the rate of 0.5 ml per 20 g of body weight, by varying the concentration of the injected solution.
Each compound is tested on a batch of 5 mice which are examined for 6 days following the injection.

Another data set relates to apomorphine. Description: Determination of central antiemetic activity (apomorphine vomiting). The settings on record: 1 mg/kg intramuscular; for Antiemetic effect /22 (average number of vomitings for two dogs): 30 min before 0.1 mg/kg apomorphine s.c., counted 30 min, controls 22. It is filed as in vivo, Beagle dogs. As for the experimental part:
These tests were carried out on adult Beagle dogs with a weight of 7 to 12 kg and which had gone without food for 18 hours. The dogs receive a dose of 1 mg/kg (0.1 ml/kg) of the compound according to the invention by intramuscular injection. 30 minutes later, 0.1 mg/kg (0.1 ml/kg) of apomorphine is administered to them subcutaneously as a central compound. The vomitings during the 30 minutes following the injection of apomorphine are counted. For two dogs serving as controls and receiving only the apomorphine 22 vomitings were counted. […] The results were confirmed by alternate tests by resuming these tests and interchanging the control dogs and the dogs on which the compounds according to the invention were previously tried.
The results relating to the toxicity and the central antiemetic activity of the compounds given hereinbefore are stated clearly in the following Table. The antiemetic activity is expressed in the form of the average number of vomitings for two dogs and is to be compared with the number 22 obtained with the control animals.

The subject of the next data set is cornea of rabbits. Put plainly: Local anesthetic activity by Regnier's method. It is filed as in vivo. The note with it: in words. As for the experimental part: This activity was measured on the cornea of rabbits by Regnier's method, described on particular in "Principes de la pharmacodynamie," pp. 204-206, Masson (1959).
In a further data set the test system is pentetrazole. Description: Anticonvulsive activity (pentetrazole convulsions). It is filed as in vivo, mice. The settings on record: 50 mg/kg i.p., pentetrazole 100 mg/kg i.p. As for the experimental part:
The compounds according to the invention were tested for their anticonvulsive activity by following the procedure described hereinafter.
Each compound is administered intraperitoneally to a batch of mice at the rate of 50 mg of compound per kilogram of body weight. 30 minutes later the mice receive, still intraperitoneally, 100 mg/kg of pentetrazole.
The time of appearance of the first convulsions (clonic convulsions), that of the tonic convulsions (hyperextension) and the death of the mice is then measured. The injections of pentetrazole are carried out comparatively on control animals.

Data set [2] is described as follows: Solubility remark in the Toxicity column. The settings on record: in words. It is filed as physicochemical.

`CCN(CC)CCNS(=O)(=O)c1ccc([N+](=O)[O-])cc1OC` gave an LD50 at 144 h in data set [1] greater than 100 mg/kg. Also, the “Antiemetic effect /22 (average number of vomitings for two dogs)” value with apomorphine was 15 vomitings.
For the compound `CCN(CC)CCNS(=O)(=O)c1ccc(N)cc1OC` [Ref. b, 2-methoxy-4-amino-N-(2-diethylaminoethyl)benzenesulphonamide], in the data set on cornea of rabbits, the local anesthetic action result is on record as “a certain local anesthetic action”. This compound registered an LD50 at 144 h in data set [1] greater than 100 mg/kg. The “Antiemetic effect /22 (average number of vomitings for two dogs)” value with apomorphine is reported as 22 vomitings.
On to `CCN(CC)CCCNS(=O)(=O)c1ccc(N)cc1OC` [Ref. c, 2-methoxy-4-amino-N-(3-diethylaminopropyl)benzenesulphonamide], for which the local anesthetic action result in the data set on cornea of rabbits is given as “a certain local anesthetic action”. In data set [1], the LD50 at 144 h was in the range of 50 to 100 mg/kg. In addition, in the data set with apomorphine, the “Antiemetic effect /22 (average number of vomitings for two dogs)” value worked out at 17 vomitings.
Compound `COc1cc([N+](=O)[O-])c(Cl)cc1S(=O)(=O)NCCN1CCCCC1` [Ref. d] registered an LD50 at 144 h in data set [1] greater than 100 mg/kg. Also, the “Antiemetic effect /22 (average number of vomitings for two dogs)” value in the data set on apomorphine was 16 vomitings.
Regarding `CCN(CC)CCCNS(=O)(=O)c1cc(Cl)c([N+](=O)[O-])cc1OC` [Ref. e], the LD50 at 144 h in data set [1] is greater than 100 mg/kg.
`CCN(CC)CCNS(=O)(=O)c1cc(Cl)c(N)cc1OC` [Ref. f] displayed an LD50 at 144 h in data set [1] of 50 to 100 mg/kg. In addition, the “Antiemetic effect /22 (average number of vomitings for two dogs)” value with apomorphine is 13 vomitings.
The compound `COc1cc(N)c(Cl)cc1S(=O)(=O)NCCN1CCCCC1` [Ref. g] displayed an LD50 at 144 h in data set [1] of 50 to 100 mg/kg. In the data set with apomorphine, the “Antiemetic effect /22 (average number of vomitings for two dogs)” value is 13 vomitings.
The compound `COc1cc(N)c(Cl)cc1S(=O)(=O)NCCCN(C)C` [Ref. h] had an LD50 at 144 h in data set [1] greater than 100 mg/kg. For the same compound, in the data set on apomorphine, the “Antiemetic effect /22 (average number of vomitings for two dogs)” value was 9 vomitings.
Take `CCN(CC)CCCNS(=O)(=O)c1cc(Cl)c(N)cc1OC` [Ref. i, 2-methoxy-4-amino-5-chloro-N-(3-diethylaminopropyl)benzenesulphonamide]: the LD50 at 144 h in data set [1] worked out at 117 mg/kg. Also, in the data set with pentetrazole (of the five mice), the “mice dead at the end of the test (of five in the batch)” value is “three”. Moreover, in the data set with pentetrazole (in words), the lethalness result is on record as “a decrease in the lethalness”. In the data set with apomorphine, the “Antiemetic effect /22 (average number of vomitings for two dogs)” value was 3 vomitings. The antiemetic activity entry in the data set with apomorphine (in words, apomorphine 0.1 mg/kg s.c.) is “excellent”.
Compound `COc1cc(N)c(Cl)cc1S(=O)(=O)NCCCN1CCOCC1` [Ref. j] had an LD50 at 144 h in data set [1] greater than 100 mg/kg. In addition, the “Antiemetic effect /22 (average number of vomitings for two dogs)” value with apomorphine stood at 22 vomitings.
Compound `COc1ccc(Cl)cc1S(=O)(=O)NCCN(C)C` [Ref. k] came in with an LD50 at 144 h in data set [1] greater than 100 mg/kg. The “Antiemetic effect /22 (average number of vomitings for two dogs)” value with apomorphine is recorded as 22 vomitings.
For the compound `CCN(CC)CCNS(=O)(=O)c1cc(Cl)ccc1OC` [Ref. l], the LD50 at 144 h in data set [1] is greater than 100 mg/kg. The “Antiemetic effect /22 (average number of vomitings for two dogs)” value in the data set on apomorphine was determined as 8 vomitings.
With `CCN(CC)CCCNS(=O)(=O)c1cc(Cl)ccc1OC` [Ref. m], the “solubility (printed in Toxicity column)” value in data set [2] is given as “insoluble”. Moreover, the “Antiemetic effect /22 (average number of vomitings for two dogs)” value in the data set with apomorphine came out at 12 vomitings.
Turning to `COc1ccc(S(N)(=O)=O)cc1S(=O)(=O)NCCN(C)C` [Ref. n], in data set [1], the LD50 at 144 h was greater than 100 mg/kg.
For `COc1cc(N)c(Cl)cc1S(=O)(=O)NCCCN1CCCCC1` [Ref. o], in data set [1], the LD50 at 144 h is 80 to 100 mg/kg.
